# Values quoted from earlier work as cited in US6689595B1, “Crystallization and structure determination of Staphylococcus aureus thymidylate kinase” (Pharmacia & Upjohn Company, priority 1999, dated 2004).
# pKd: −log10 of the molar value.
# Target: E. coli TMK (Escherichia coli, UniProt P0A720)
# Settings: from A. Lavie et al. 1998
# Chain of E. coli TMK (P0A720 whole entry): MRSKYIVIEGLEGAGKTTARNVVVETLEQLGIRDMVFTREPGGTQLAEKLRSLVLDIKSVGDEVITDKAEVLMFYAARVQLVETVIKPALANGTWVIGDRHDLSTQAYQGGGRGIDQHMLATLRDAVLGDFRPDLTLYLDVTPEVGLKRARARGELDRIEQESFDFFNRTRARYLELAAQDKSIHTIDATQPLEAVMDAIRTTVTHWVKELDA
smiles,measurement,value
Cc1cn([C@H]2C[C@H](O)[C@@H](COP(=O)(O)OP(=O)(O)OP(=O)(O)OP(=O)(O)OP(=O)(O)OC[C@H]3O[C@@H](n4cnc5c(N)ncnc54)[C@H](O)[C@@H]3O)O2)c(=O)[nH]c1=O [AP5T],pKd,7.70
